Reference: US11518742B2 (priority 2020, dated 2022)
Like-named read-outs stand apart in the source and are kept apart here.

Columns and labels:
Sprague-Dawley rats = test: Maximum tolerated dose followed by 7-day repeat-dose toxicology in rats (Study 700040); type: in vivo, rat
Method: (§1) The study consisted of 2 parts. […] The doses used in part 1 were 15, 30, 50, 65, and 75 mg/kg. Each subsequent dose was administered following at least 24 hours from the commencement of the previous dose. There were 2 males and 2 females in each dose group.
(§2) During Phase I, assessments of mortality, clinical signs and body weights were performed. […] The necropsy consisted of an external examination, including reference to all clinically-recorded lesions, as well as a detailed internal examination.
(§3) During Phase 2, assessments of mortality, clinical signs and body weights were performed. Following dosing, all animals were euthanized and subjected to a necropsy examination on Day 8. The necropsy consisted of an external examination, including reference to all clinically-recorded lesions, as well as a detailed internal examination. Study plan specific tissues/organs were collected and retained, then trimmed and preserved promptly once the animal was euthanized but these were not further examined microscopically.

[1] = as above; type: in vivo, rat; details: both sexes, Sprague-Dawley, rat, in vivo, inhaled or intranasal; single intranasal administration
Method: as §1, §2, §3

[2] = tested on: Escherichia coli tester strain WP2uvrA; test: Bacterial Reverse Mutation Test (Ames test), Escherichia coli
[3] = tested on: Chinese hamster ovary (CHO)-K1 cells; test: In vitro micronucleus test (flow cytometry); type: cell-based
Text: The treatment with the vehicle/negative and positive controls was concurrently performed.

[4] = Toxicokinetics, 14-day intranasal study in dogs (Study 62959); type: in vivo; details: dog, plasma, inhaled or intranasal; for AUC(0-inf): read-out: AUCINF_obs; for AUC(0-t): read-out: AUC0-Tlast
Method: Assessments of mortality, clinical signs, olfactory reflex, body weights, food consumption, ophthalmology, and electrocardiograms were performed. In addition, clinical pathology assessments (hematology, coagulation, clinical chemistry and urinalysis) were evaluated once pretreatment and at termination. Blood samples were collected from the jugular vein of all animals on Days 1 and 14, at up to 8 time points relative to treatment, for analysis of test item concentration in plasma and the subsequent calculation of toxicokinetic parameters. Following dosing, the Main animals were euthanized and subjected to a complete necropsy examination on Day 15. […] All Main and Recovery study animals underwent complete necropsy examinations, selected tissues/organs were retained, and microscopic evaluations of a standard set of tissues were performed.
For toxicokinetics, a series of 8 blood samples were collected from the jugular vein from all treated animals on each of Days 1 and 14 of the treatment period at 2, 5, 10, 15, 30, and 60 minutes as well as 3 and 8 hours after treatment.

Dog = test: Summary of clinical observations in applicant-sponsored dog studies; type: in vivo; details: Dog 1.0 mg/kg (= 33 mg HED); preliminary data, ongoing study
Text: (§4) Based on preliminary data from another ongoing study in dogs, it has been observed that the site of blood sampling in dogs may impact the measured plasma exposure. Samples from the jugular vein may result in higher apparent exposure levels than samples from the cephalic vein, which might be due to the local transmucosal route of administration (also reported in the scientific literature (Illum, 2003; Sohlberg, 2013)). Therefore, dose escalation criteria for the Phase 1 Single Ascending Dose study are based on assessment of clinical criteria, safety factors and exposure. A maximum dose of 14 mg has been designated.

[5] = as above; type: in vivo; details: beagle, in vivo, other: intranasal instillation; Dog; HED 50 mg; read-out: NOAEL determined in the 14-day toxicology studies
Text: as §4

[6] = Toxicokinetics in dog MTD study (Study 62958); type: in vivo
Method: During Phase 2, assessments of mortality, clinical signs, body weights and food consumption were performed. […] Following the last dosing, all animals were euthanized and subjected to a necropsy examination on Day 8. The necropsy consisted of an external examination; including reference to all clinically-recorded lesions, as well as a detailed internal examination. Study plan specific tissues/organs were collected and preserved following necropsy but were not further examined microscopically.
There were no sex differences in any of the measured toxicokinetic parameters on either occasion.

male Sprague-Dawley rats = test: Functional Observational Battery (FOB), single intranasal administration (ITR study 15951); type: in vivo, rat
Method: The test and control/vehicle items were administered by single dose intranasal administration to both nostrils, as shown in Table 7.
Parameters monitored included mortality and clinical signs. General behavioral changes were assessed using FOB at 6 timepoints: before dosing, and at 15 minutes, 1, 2, 4, and 24 hours postdosing. On each occasion, the FOB was performed at 4 stages: when the animals were in their home cage, while handling the animals, when the animals were freely moving in an open-field, and when they received diverse stimuli for reactivity evaluation. The body temperature and neuromuscular strength were also measured on each of the occasions detailed above.

[7] = female, Beagle, 0.8 mg/kg/day, Day 1, Female
[8] = female, Beagle, 0.8 mg/kg/day, Day 14, Female
[9] = female, beagle, 0.4 mg/kg/day, Day 1, Female
[10] = female, beagle, 0.4 mg/kg/day, Day 14, Female
[11] = male, Beagle, 0.8 mg/kg/day, Day 1, Male
[12] = male, Beagle, 0.8 mg/kg/day, Day 14, Male
[13] = male, beagle, 0.4 mg/kg/day, Day 1, Male
[14] = male, beagle, 0.4 mg/kg/day, Day 14, Male

## COc1ccc2[nH]cc(CCN(C)C)c2c1 [5MeODMT, 5-methoxy-N,N-dimethyltryptamine]
Sprague-Dawley rats; 75 mg/kg for 7 consecutive days
  Body weight gain: slightly suppressed for both sexes
Sprague-Dawley rats; 75 mg/kg once daily intranasal
  Tolerability, 7 consecutive days: tolerated
Sprague-Dawley rats; dose levels up to 75 mg/kg
  Tolerability, single intranasal administration: tolerated
Sprague-Dawley rats; single dose 15, 30, 50, 65, 75 mg/kg
  Mortality and gross pathology: no mortality and gross pathology findings at any dose
[1]
  MTD at 14 days: 75 mg/kg
[2]; E. coli strain, absence or presence of S9 mix
  Cytotoxicity: No cytotoxicity
[2]; absence or presence of S9
  Mutagenic potential (conclusion): no mutagenic potential
[3]
  Chromosome-damaging potential (conclusion): no chromosome-damaging potential
[3]; all treatment regimens, absence or presence of S9
  Micronuclei or hypodiploid cells: did not induce any increases in micronuclei or hypodiploid cells
[3]; up to the maximal dose level of 300 μg/mL
  Cytotoxicity or precipitation: No cytotoxicity or precipitation
[4]; both sexes, Beagle, dogs, 14-day intranasal study
  Tmax: 3 to 14 min
[4]; both sexes, Beagle, dogs, 14-day intranasal study, read-out: apparent elimination half-lives
  half-life: 19 to 95 min

## COc1ccc2[nH]cc(CCN(C)C)c2c1 [BPL-5MEO, 5-methoxy-N,N-dimethyltryptamine]
Dog
  Clinical observations: Slighttremor
[5]
  NOAEL at 14 days: 1.5 mg/kg
[6]; daily intranasal instillation
  Accumulation over the 7-day treatment period: did not accumulate
[6]; dog, plasma, inhaled or intranasal, dogs, Days 1 and 7, both sexes
  Tmax: 2 to 15 min
Male Sprague-Dawley rats; 10 mg/kg
  Clinical sign in one animal: twitching
Male Sprague-Dawley rats; 1.5, 3, and 10 mg/kg
  Resolution of clinical signs and FOB changes: fully resolved within 1 or 2 hours following dosing
Male Sprague-Dawley rats; 3 and 10 mg/kg doses
  Clinical signs in some animals: Tremors, salivation, and gasping
Male Sprague-Dawley rats; 15 minutes postdose, comparable to control at 1-hour postdose
  FOB behavioral domain: transient decreased activity, lying on the cage floor, and decreased rearing
Male Sprague-Dawley rats; all dose groups, transient
  Clinical signs immediately following dosing: decreased activity, lying on the cage floor, shallow/increased respiration and dilated pupils
Male Sprague-Dawley rats; all dose levels, comparable to control at 1-hour postdose
  FOB neurological (sensorimotor)/neuromuscular domain: transient changes in gait (difficulty in movement)
Male Sprague-Dawley rats; all dose levels, comparable with control at 2 hours postdose
  FOB autonomic domain: salivation, piloerection, increased respiration, dilated pupils and changes in body temperature
[4]; Beagle, dogs, 1.5 mg/kg/day, combined for both sexes, read-out: AUCINT_obs at the NOAEL
  AUC: 220 ng·h/mL
[4]; [7]
  Cmax: 328 ng/mL
  AUC(0-inf): 265 ng·h/mL
[4]; female, Beagle, 0.8 mg/kg/day, Day 1, Female, read-out: t1/2 (converted)
  half-life: 43.8 min
[4]; [8]
  Cmax: 244 ng/mL
  AUC(0-t): 248 ng·h/mL
[4]; female, Beagle, 0.8 mg/kg/day, Day 14, Female, read-out: t1/2 (converted)
  half-life: 95.4 min
[4]; [9]
  Cmax: 242 ng/mL
  AUC(0-t): 104 ng·h/mL
  AUC(0-inf): 106 ng·h/mL
[4]; female, beagle, 0.4 mg/kg/day, Day 1, Female, read-out: t1/2 (converted)
  half-life: 18.7 min
[4]; [10]
  Cmax: 196 ng/mL
  AUC(0-t): 86.4 ng·h/mL
  AUC(0-inf): 95.9 ng·h/mL
[4]; female, beagle, 0.4 mg/kg/day, Day 14, Female, read-out: t1/2 (converted)
  half-life: 42.4 min
[4]; female, beagle, […], 2.5 & […], Day 1, Female
  Tmax: 6.66 min
[4]; female, beagle, […], 2.5 & […], Day 1, Female, read-out: t1/2 (converted)
  half-life: 50.9 min
[4]; [11]
  Cmax: 300 ng/mL
  Tmax: 6.66 min
  AUC(0-t): 152 ng·h/mL
  AUC(0-inf): 160 ng·h/mL
[4]; male, Beagle, 0.8 mg/kg/day, Day 1, Male, read-out: t1/2 (converted)
  half-life: 35.7 min
[4]; [12]
  Cmax: 411 ng/mL
  Tmax: 6.66 min
  AUC(0-t): 298 ng·h/mL
  AUC(0-inf): 322 ng·h/mL
[4]; male, Beagle, 0.8 mg/kg/day, Day 14, Male, read-out: t1/2 (converted)
  half-life: 79.2 min
[4]; [13]
  Cmax: 343 ng/mL
  AUC(0-t): 77.9 ng·h/mL
  AUC(0-inf): 80.9 ng·h/mL
[4]; male, beagle, 0.4 mg/kg/day, Day 1, Male, read-out: t1/2 (converted)
  half-life: 34.3 min
[4]; [14]
  Cmax: 285 ng/mL
  Tmax: 6.66 min
  AUC(0-t): 70.6 ng·h/mL
  AUC(0-inf): 77.7 ng·h/mL
[4]; male, beagle, 0.4 mg/kg/day, Day 14, Male, read-out: t1/2 (converted)
  half-life: 25.7 min
[4]; male, beagle, […], 2.5 & […], Day 14, Male
  Tmax: 13.4 min
[4]; male, beagle, […], 2.5 & […], Day 14, Male, read-out: t1/2 (converted)
  half-life: 49 min
